Test results published in US12122736B2, “Salty taste-enhancing agent and manufacturing method therefor, and salty taste-enhancing method” (NISSIN FOODS HOLDINGS CO., LTD., priority 2012, dated 2024).

Assays:
[1] = Sensory evaluation of salty taste-enhancing action in salt aqueous solution (Example 1); settings: 0.150 wt % evaluation sample and 0.700 wt % sodium chloride in distilled water; compared with 0.700-0.840 wt % saline
Procedure: The salty taste-enhancing action may be evaluated by a sensory test.
Each evaluation sample and sodium chloride (salt) were dissolved in distilled water to prepare an aqueous solution containing 0.150 wt % of the evaluation sample and 0.700 wt % of sodium chloride, which was used as an evaluation solution. In addition, solutions containing 0.700 wt %, 0.735 wt %, 0.770 wt %, 0.805 wt %, and 0.840% of sodium chloride were used as comparative objects.

[2] = Sensory evaluation of relationship between addition concentration and salty taste-enhancing action (Example 2); settings: for Salty taste-enhancing effect: 0.700 wt % sodium chloride
Procedure: 3-Guanidino-1-propanol hydrochloride obtained in Synthesis Example 2 was evaluated for its relationship between an addition concentration and a salty taste-enhancing action.
3-Guanidino-1-propanol hydrochloride and sodium chloride (salt) were dissolved in distilled water to prepare an aqueous solution containing 1.5 ppm (0.00015 wt %), 15 ppm (0.0015 wt %), 150 ppm (0.015 wt %), or 1,500 ppm (0.15 wt %) of 3-guanidino-1-propanol hydrochloride and 0.700 wt % of sodium chloride, which was used as an evaluation solution. In addition, solutions containing 0.700 wt %, 0.735 wt %, 0.770 wt %, 0.805 wt %, and 0.840 wt % of sodium chloride were used as comparative objects.

N=C(N)NCCCCCC(=O)O [6-Guanidinocaproic acid]
Salty taste-enhancing effect [1]: + (exhibiting a salty taste equal to or stronger than that of 0.735 wt % saline (exhibiting a salty taste-enhancing effect of 5% or more))

N=C(N)NCCCO [Example 14]
Salty taste-enhancing effect [1]: ++++ (exhibiting a salty taste equal to or stronger than that of 0.840 wt % saline (exhibiting a salty taste-enhancing effect of 20% or more))

Cl.N=C(N)N [Guanidine hydrochloride]
Salty taste-enhancing effect [1]: +++ (exhibiting a salty taste equal to or stronger than that of 0.805 wt % saline (exhibiting a salty taste-enhancing effect of 15% or more))

Cl.N=C(N)NCCCO [Synthesis Example 2, 3-Guanidino-1-propanol hydrochloride]
addition concentration at which a salty taste-enhancing action was exhibited ([2]; 0.700 wt % sodium chloride aqueous solution): ≥ 15 ppm
Salty taste-enhancing effect ([2]; addition concentration 1.5 ppm (0.00015%)): ± (exhibiting a salty taste weaker than that of 0.735 wt % saline (exhibiting a salty taste-enhancing effect of less than 5%))
Salty taste-enhancing effect ([2]; addition concentration 15 ppm (0.0015%)): + (exhibiting a salty taste equal to or stronger than that of 0.735 wt % saline (exhibiting a salty taste-enhancing effect of 5% or more))
Salty taste-enhancing effect ([2]; addition concentration 150 ppm (0.015%)): ++ (exhibiting a salty taste equal to or stronger than that of 0.770 wt % saline (exhibiting a salty taste-enhancing effect of 10% or more))
Salty taste-enhancing effect ([2]; addition concentration 1,500 ppm (0.15%)): ++++ (exhibiting a salty taste equal to or stronger than that of 0.840 wt % saline (exhibiting a salty taste-enhancing effect of 20% or more))

N=C(N)NCCC(=O)O [β-Guanidinopropanoic acid]
Salty taste-enhancing effect [1]: ++ (exhibiting a salty taste equal to or stronger than that of 0.770 wt % saline (exhibiting a salty taste-enhancing effect of 10% or more))
